A short description of data set [1]: The drug is tested on Collinsella intestinalis strain: DSM13280 for biotransformation. The drug concentrations were measured before and after a 12-h incubation by liquid-chromatography-coupled mass spectrometry (LC–MS). Conditions: 2 µM.
Data set [2] in a line: The drug is tested on Eggerthella lenta strain: ATCC25559 for biotransformation. The drug concentrations were measured before and after a 12-h incubation by liquid-chromatography-coupled mass spectrometry (LC–MS). The note with it: 2 µM.
Data set [3] is described as follows: The drug is tested on Bacteroides fragilis strain: HMW610 for biotransformation. The drug concentrations were measured before and after a 12-h incubation by liquid-chromatography-coupled mass spectrometry (LC–MS). The note with it: 2 µM.
Data set [4] can be described thus: The drug is tested on Bacteroides uniformis strain: ATCC8492 for biotransformation. The drug concentrations were measured before and after a 12-h incubation by liquid-chromatography-coupled mass spectrometry (LC–MS). Conditions: 2 µM.
Data set [5] in a line: The drug is tested on Bacteroides sp. WH2 strain: WH2 for biotransformation. The drug concentrations were measured before and after a 12-h incubation by liquid-chromatography-coupled mass spectrometry (LC–MS). The note with it: bacteroides sp. wh2, 12 h, 2 µM.
Data set [6] in a line: The drug is tested on Odoribacter splanchnicus strain: fecal isolate for biotransformation. The drug concentrations were measured before and after a 12-h incubation by liquid-chromatography-coupled mass spectrometry (LC–MS). Conditions: 2 µM.
Data set [7] in a line: The drug is tested on Parabacteroides merdae strain: ATCC43184 for biotransformation. The drug concentrations were measured before and after a 12-h incubation by liquid-chromatography-coupled mass spectrometry (LC–MS). Conditions: 2 µM.
Data set [8] in a line: The drug is tested on Clostridium sp. strain: fecal isolate for biotransformation. The drug concentrations were measured before and after a 12-h incubation by liquid-chromatography-coupled mass spectrometry (LC–MS). The note with it: 2 µM.
The nature of data set [9]: The drug is tested on Clostridium scindens strain: ATCC35704 for biotransformation. The drug concentrations were measured before and after a 12-h incubation by liquid-chromatography-coupled mass spectrometry (LC–MS). The note with it: 2 µM.
Data set [10] can be described thus: The drug is tested on Clostridium sporogenes strain: ATCC15579 for biotransformation. The drug concentrations were measured before and after a 12-h incubation by liquid-chromatography-coupled mass spectrometry (LC–MS). Conditions: 2 µM.
Data set [11] in a line: The drug is tested on Dorea formicigenerans strain: ATCC27755 for biotransformation. The drug concentrations were measured before and after a 12-h incubation by liquid-chromatography-coupled mass spectrometry (LC–MS). Conditions: 2 µM.
For data set [12] the following is noted: bifidobacterium adolescentis, 12 h, 2 µM.
Description: The drug is tested on Bifidobacterium adolescentis strain: ATCC 15703 for biotransformation. The drug concentrations were measured before and after a 12-h incubation by liquid-chromatography-coupled mass spectrometry (LC–MS)
The conditions of data set [13]: bacteroides eggerthii, 12 h, 2 µM.
Description: The drug is tested on Bacteroides eggerthii strain: DSM20697 for biotransformation. The drug concentrations were measured before and after a 12-h incubation by liquid-chromatography-coupled mass spectrometry (LC–MS)
For data set [14] the following is noted: bacteroides fragilis, 12 h, 2 µM.
Description: The drug is tested on Bacteroides fragilis strain: 3397 (T10) for biotransformation. The drug concentrations were measured before and after a 12-h incubation by liquid-chromatography-coupled mass spectrometry (LC–MS)
The conditions of data set [15]: bacteroides intestinalis, 12 h, 2 µM.
Description: The drug is tested on Bacteroides intestinalis strain: DSM17393 for biotransformation. The drug concentrations were measured before and after a 12-h incubation by liquid-chromatography-coupled mass spectrometry (LC–MS)
For data set [16] the following is noted: parabacteroides johnsonii, 12 h, 2 µM.
Description: The drug is tested on Parabacteroides johnsonii strain: DSM18315 for biotransformation. The drug concentrations were measured before and after a 12-h incubation by liquid-chromatography-coupled mass spectrometry (LC–MS)
For data set [17] the following is noted: anaerostipes sp., 12 h, 2 µM.
Description: The drug is tested on Anaerostipes sp. strain: fecal isolate for biotransformation. The drug concentrations were measured before and after a 12-h incubation by liquid-chromatography-coupled mass spectrometry (LC–MS)
Data set [18] in a line: The drug is tested on Bacteroides xylanisolvens strain: DSM18836 for biotransformation. The drug concentrations were measured before and after a 12-h incubation by liquid-chromatography-coupled mass spectrometry (LC–MS). The note with it: 2 µM.
Data set [19] in a line: The drug is tested on Ruminococcus lactaris strain: ATCC29176 for biotransformation. The drug concentrations were measured before and after a 12-h incubation by liquid-chromatography-coupled mass spectrometry (LC–MS). The note with it: 2 µM.
For data set [20] the following is noted: segatella copri, 12 h, 2 µM.
Description: The drug is tested on Prevotella copri strain: DSM18205 for biotransformation. The drug concentrations were measured before and after a 12-h incubation by liquid-chromatography-coupled mass spectrometry (LC–MS)

SMILES strings stand for the structures.

Consider `CC12CC3CC(C)(C1)CC(N)(C3)C2` [MEMANTINE], for which the “Bacterial Biotransformation” value in data set [1], in data set [2], in [3], in [4], in data set [5] and in data set [6] was “Compound NOT metabolized” in each case. In addition, the “Bacterial Biotransformation” value in data set [7], in [8], in [9], in data set [10], in data set [11] and in [12] was “Compound NOT metabolized” throughout. In addition, the “Bacterial Biotransformation” value in data set [13], in [14], in [15], in [16] and in data set [17] was “Compound NOT metabolized” throughout.
For the compound `CCC(=O)NCC[C@@H]1CCc2ccc3c(c21)CCO3` [RAMELTEON], the “Bacterial Biotransformation” value was “Compound NOT metabolized” in data set [1]; “Compound NOT metabolized” in data set [2]; “Compound metabolized” in data set [3]; “Compound metabolized” in data set [4]; “Compound NOT metabolized” in data set [5]; “Compound metabolized” in data set [18]. Further, the “Bacterial Biotransformation” value in data set [6] is reported as “Compound metabolized”; in [7] it was “Compound metabolized”; in data set [8], “Compound NOT metabolized”; in data set [9], “Compound NOT metabolized”; in data set [10] it was “Compound NOT metabolized”; in [11] it was “Compound NOT metabolized”. For the same compound, the “Bacterial Biotransformation” value in [19] was “Compound NOT metabolized”; in data set [12], “Compound NOT metabolized”; in data set [13], “Compound metabolized”; in data set [16], “Compound NOT metabolized”; in data set [20] it was “Compound metabolized”; in [17] it was “Compound NOT metabolized”.
Take `COC(=O)[C@H]1[C@H]2C[C@@H]3c4[nH]c5cc(OC)ccc5c4CCN3C[C@H]2C[C@@H](OC(=O)c2cc(OC)c(OC)c(OC)c2)[C@@H]1OC` [RESERPINE]: the “Bacterial Biotransformation” value in [1], in data set [2], in [3], in [4], in [5] and in [18] was “Compound NOT metabolized” throughout. In addition, the “Bacterial Biotransformation” value in data set [7], in data set [8], in data set [10], in data set [11], in [19] and in data set [12] was “Compound NOT metabolized” in each case. Also, the “Bacterial Biotransformation” value in [13], in [14], in data set [15], in data set [16], in [20] and in data set [17] was “Compound NOT metabolized” each time.

Source of the values: ChEMBL document CHEMBL5303573, “Mapping human microbiome drug metabolism by gut bacteria and their genes” (Nature, 2019).
